Source: patent US5776970A, “Tryptophan derivatives as protein tyrosine kinase blockers and their use in the treatment of neoplastic diseases” (Yeda Research and Development Co. Ltd., priority 1994, dated 1998)

Columns and labels:
[1] = target: T1, insulin receptor tyrosine kinase (InsRTK) (Rattus norvegicus, UniProt P15127); assay: PolyGlu4 Tyr phosphorylation by partially purified (wheat-germ-agglutinin purified) rat liver insulin receptor, cell-free; assay type: biochemical; set-up: wheat-germ-agglutinin purified rat liver insulin receptor; from tissue; host or cells: rat liver (wheat-germ-agglutinin purified); details: for Relative cell-free potency in inhibiting InsRTK: CBZ-DNPS-TRP-Taurine 100
Method: An assay of PolyGlu4 Tyr phosphorylation by partially purified insulin receptor was run for 30 min at 22° C. in 60 μl of 50 mM Hepes (pH 7.4)-0.1% Triton X-100 containing wheat-germ-agglutinin purified rat liver insulin receptor (1 μg protein), MgCl2 25 mM; MnCl2, 1 mM, ATP 17 μM, insulin 0.1 μM, PolyGlu4 Tyr, 0.17 mg/ml and the indicated concentrations in FIG. 1 of CBZ-DNPS-TRP-TAU. Phosphotyrosine content in PolyGlu4 Tyr was determined by a radioimmunoassay procedure (Shisheva et al., 1991). […] The inhibitory potency of other derivatives of formula I on InsRTK-catalyzed PolyGlu4 Tyr phosphorylation in cell-free experiments was determined. […] For comparison, the IC50 values for AC-TRP-TAU and L-tryptophan are 5 mM and >30 mM, respectively.
(§1) Various derivatives according to the invention in which R^1 is benzyloxycarbonyl (CBZ) or t-butoxycarbonyl (t-Boc), R^2 is --SO3 H or --PO3 H, n is 1,2 or 3, and R^3 is H, 2-nitrophenylthio (NPS) or 2,4-dinitrophenylthio (DNPS) were prepared and examined in cell-free and intact cell systems. The cell-free assay is PolyGlu4 Tyr phosphorylation by partially purified insulin receptor as described in Example 3. The assay in intact cells (namely, lipogenesis) was carried out as described in Example 4.
Target sequence in this assay (P15127 764-1383 limits assumed): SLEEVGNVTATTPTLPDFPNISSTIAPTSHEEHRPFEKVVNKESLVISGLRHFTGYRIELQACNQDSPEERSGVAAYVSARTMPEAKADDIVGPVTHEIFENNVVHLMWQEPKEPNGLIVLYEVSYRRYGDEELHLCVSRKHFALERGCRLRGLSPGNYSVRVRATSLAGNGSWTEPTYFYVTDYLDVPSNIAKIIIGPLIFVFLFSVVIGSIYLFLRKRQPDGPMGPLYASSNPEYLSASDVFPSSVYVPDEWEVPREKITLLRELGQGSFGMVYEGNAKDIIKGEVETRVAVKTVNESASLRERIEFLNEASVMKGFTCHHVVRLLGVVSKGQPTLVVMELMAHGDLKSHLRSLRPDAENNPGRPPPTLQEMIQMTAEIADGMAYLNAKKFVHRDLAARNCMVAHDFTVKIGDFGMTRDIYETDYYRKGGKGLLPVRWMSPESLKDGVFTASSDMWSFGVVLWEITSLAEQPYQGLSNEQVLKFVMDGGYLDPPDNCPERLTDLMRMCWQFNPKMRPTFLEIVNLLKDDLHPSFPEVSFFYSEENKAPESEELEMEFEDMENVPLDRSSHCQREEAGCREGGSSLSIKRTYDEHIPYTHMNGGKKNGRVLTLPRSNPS
Target sequence in this assay (P15127 27-759 partner limits assumed): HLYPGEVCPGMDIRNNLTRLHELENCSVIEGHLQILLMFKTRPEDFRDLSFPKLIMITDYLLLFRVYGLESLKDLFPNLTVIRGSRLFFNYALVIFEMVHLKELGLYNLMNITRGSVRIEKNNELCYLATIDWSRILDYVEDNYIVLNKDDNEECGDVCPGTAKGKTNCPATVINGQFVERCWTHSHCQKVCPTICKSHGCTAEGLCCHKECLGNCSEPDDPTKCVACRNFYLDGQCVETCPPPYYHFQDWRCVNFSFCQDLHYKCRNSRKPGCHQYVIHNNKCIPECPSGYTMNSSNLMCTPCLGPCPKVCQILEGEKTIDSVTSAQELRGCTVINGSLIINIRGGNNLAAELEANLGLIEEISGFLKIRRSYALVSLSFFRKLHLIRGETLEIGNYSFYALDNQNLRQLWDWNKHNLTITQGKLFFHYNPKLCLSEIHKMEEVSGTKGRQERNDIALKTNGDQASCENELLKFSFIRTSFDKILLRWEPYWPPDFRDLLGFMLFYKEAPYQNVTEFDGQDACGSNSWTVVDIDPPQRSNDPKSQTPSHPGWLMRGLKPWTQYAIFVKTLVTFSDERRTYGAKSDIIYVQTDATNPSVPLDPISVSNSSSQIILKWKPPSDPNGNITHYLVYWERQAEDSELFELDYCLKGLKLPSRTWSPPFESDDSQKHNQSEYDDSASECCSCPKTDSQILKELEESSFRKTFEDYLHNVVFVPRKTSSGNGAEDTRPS

rat adipocytes = assay: permeability into cell interiors (intact cell system, lipogenesis); assay type: cell-based; details: graded in words
Method: Rat adipocytes were prepared essentially by the method of Rodbell, 1964. The fat pads of three rats were cut into small pieces with scissors and digested in 3 ml of Krebs-Ringer-Bicarbonate (KRB)-buffer containing 0.7% bovine serum albumin (BSA) (pH 7.4) with collagenase (1 mg/ml). The digestion was performed in a 25 ml flexible plastic bottle under an atmosphere of carbogen (95% O2, 5% CO2) for 40 min at 37° C. with vigorous shaking. Five ml of buffer was then added, and the cells were squeezed through a mesh screen. The cells were then allowed to stand for several minutes (in a 15 ml plastic test tube at room temperature, floating) and the buffer underneath was removed. This procedure (suspension, floating and removal of buffer underneath) was repeated three times. For [^14 C-U]glucose incorporation (lipogenesis), the fat cell suspensions (3×10^5 cells/ml) were divided into plastic vials (0.5 ml per vial) and incubated for 60 min at 37° C. under an atmosphere of 95% O2, 5% CO2, with 0.2 mM [U-^14 C]glucose, in either the presence or absence of insulin (100 ng/ml) and the indicated concentrations in FIG. 2 of CBZ-DNPS-TRP-TAU. The reaction was terminated by adding toluene-based scintillation fluid (1.0 ml per vial) and the extracted lipids were counted (Shechter and Karlish, 1980). Fat cell suspensions were pre-incubated for 20 min at 37° C. with increasing concentrations of the inhibitors. Results are expressed in FIG. 2 as the percent of maximal stimulation at the indicated concentrations of inhibitors. In all experiments insulin-stimulated lipogenesis was 4- to 5-fold higher than basal; basal ~2000 cpm per 3×10^5 cells/h; Vinsulin 8000-10,000 cpm per 3×10^5 cells/h.
as §1

[2] = target: T1, insulin receptor tyrosine kinase (InsRTK); assay: inactivation of InsRTK by affinity reagent; assay type: biochemical; details: covalent affinity reagent
Description: Thus, to design and synthesize a low molecular weight blocker of InsRTK able to permeate into cell interiors, we first searched for an affinity reagent that would covalently bind and inactivate the InsRTK at low concentrations. […] The complementary hydrophilic domain of the InsRTK contains a lysine moiety that reacts covalently with the active ester and is likely to participate in substrate binding or catalysis. Equipped with this information we have synthesized a family of competitive inhibitors.
Target sequence in this assay (P15127 27-1383): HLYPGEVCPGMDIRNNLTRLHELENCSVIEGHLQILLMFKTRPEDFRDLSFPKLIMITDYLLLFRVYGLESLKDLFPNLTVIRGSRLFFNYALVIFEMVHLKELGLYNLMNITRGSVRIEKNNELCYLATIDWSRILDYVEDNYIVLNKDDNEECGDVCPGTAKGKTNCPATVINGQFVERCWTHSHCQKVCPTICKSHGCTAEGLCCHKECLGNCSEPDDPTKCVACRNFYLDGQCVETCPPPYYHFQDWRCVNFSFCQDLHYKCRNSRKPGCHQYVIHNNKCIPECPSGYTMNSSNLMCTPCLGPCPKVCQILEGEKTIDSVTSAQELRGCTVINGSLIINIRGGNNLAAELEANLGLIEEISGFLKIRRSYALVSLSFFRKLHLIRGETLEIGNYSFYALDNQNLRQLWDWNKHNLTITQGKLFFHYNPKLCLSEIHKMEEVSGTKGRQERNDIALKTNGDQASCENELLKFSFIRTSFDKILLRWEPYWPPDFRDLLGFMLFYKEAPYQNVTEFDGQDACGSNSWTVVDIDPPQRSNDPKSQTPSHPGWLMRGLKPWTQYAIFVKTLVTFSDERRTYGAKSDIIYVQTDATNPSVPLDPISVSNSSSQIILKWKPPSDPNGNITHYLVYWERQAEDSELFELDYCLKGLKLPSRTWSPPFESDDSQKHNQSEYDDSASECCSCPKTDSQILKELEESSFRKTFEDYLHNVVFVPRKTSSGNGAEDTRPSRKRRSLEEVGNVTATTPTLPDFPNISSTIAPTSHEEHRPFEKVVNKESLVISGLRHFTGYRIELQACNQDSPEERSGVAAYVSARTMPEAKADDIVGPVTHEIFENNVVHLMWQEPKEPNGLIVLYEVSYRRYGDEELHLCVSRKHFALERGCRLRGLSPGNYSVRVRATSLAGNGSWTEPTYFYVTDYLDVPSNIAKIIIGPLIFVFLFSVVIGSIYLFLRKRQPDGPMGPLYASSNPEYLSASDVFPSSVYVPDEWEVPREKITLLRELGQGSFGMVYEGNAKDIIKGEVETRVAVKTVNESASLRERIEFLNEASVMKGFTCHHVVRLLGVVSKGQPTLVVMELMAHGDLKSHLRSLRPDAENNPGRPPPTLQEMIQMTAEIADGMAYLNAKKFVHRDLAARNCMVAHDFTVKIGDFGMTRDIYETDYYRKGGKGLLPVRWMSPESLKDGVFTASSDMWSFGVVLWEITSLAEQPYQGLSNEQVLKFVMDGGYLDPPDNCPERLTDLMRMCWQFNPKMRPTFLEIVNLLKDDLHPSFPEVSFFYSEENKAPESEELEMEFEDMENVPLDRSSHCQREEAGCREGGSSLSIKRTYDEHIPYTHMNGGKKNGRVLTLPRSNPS

solubility = details: water
[3] = system: isoproterenol-mediated lipolysis; assay: isoproterenol-mediated lipolysis in rat adipocytes (glycerol release); assay type: cell-based; details: isoproterenol 1 μM alone
Method: In general there are two classes of protein kinases (PKs) in mammalian tissues: (a) PKs which phosphorylate tyrosine moieties in proteins (to phosphotyrosine), and (b) PKs which phosphorylate serine and threonine moieties (to phosphoserine and phosphotreonine). […] An example for such a metabolic effect is lipolysis which depends on protein kinase A. Rat adipocytes (prepared by the method of Rodbell, 1964) were incubated with isoproterenol alone (1 μM) or isoproterenol with CBZ-DNPS-TRP-TAU (200 μM) for one hour at 37° C. The amount of glycerol released from the cells was then determined by spectroscopic procedure (Shechter, 1982).

[4] = system: insulin-stimulated lipogenesis in rat adipocytes; assay: insulin-stimulated lipogenesis in rat adipocytes ([U-14C]glucose incorporation); assay type: cell-based; details: insulin 100 ng/ml
Method: The fat pads of three rats were cut into small pieces with scissors and digested in 3 ml of Krebs-Ringer-Bicarbonate (KRB)-buffer containing 0.7% bovine serum albumin (BSA) (pH 7.4) with collagenase (1 mg/ml). […] Five ml of buffer was then added, and the cells were squeezed through a mesh screen. The cells were then allowed to stand for several minutes (in a 15 ml plastic test tube at room temperature, floating) and the buffer underneath was removed. This procedure (suspension, floating and removal of buffer underneath) was repeated three times. […] Fat cell suspensions were pre-incubated for 20 min at 37° C. with increasing concentrations of the inhibitors. Results are expressed in FIG. 2 as the percent of maximal stimulation at the indicated concentrations of inhibitors.

[5] = system: murine T-cell lymphoma (LB3); assay: insulin-dependent proliferation of murine T-cell lymphoma (LB3), thymidine incorporation; assay type: cell-based; details: 30,000 LB3 cells; insulin or other mitogens
Method: LB cells were removed from the peritoneal cavity of BALB/c mice, washed and resuspended in RPMI-1640. Then a continuous line designated LB3 was established in "LB medium" (50% RPMI-1640 plus 50% DCCM-1 in 10% fetal calf serum (FCS)). The LB3 cells were incubated (37° C., 5% CO2) in microplate wells (Nunc, Roskilde, Denmark) with 0.2 ml RPMI-1640 alone and in the same medium containing insulin, fetal calf serum (FCS) or both, and different concentrations of the compound CBZ-DNPS-TRP-TAU as indicated in FIG. 3. Proliferation capacity was determined by thymidine incorporation (^3 H-TdR, 1 μCi/well, specific activity 5 Ci/mM), added to the cells 24 hours later. In a typical experiment, cpm of ^3 H-thymidine incorporated into 30,000 cells was 12-14 fold higher in the presence of insulin or other mitogens than in their absence.

[6] = cell-free, 30 min, 22° C., pH 7.4, ATP 17 μM, insulin 0.1 μM, read-out: IC50 value, InsRTK-catalyzed PolyGlu4 Tyr phosphorylation

Row | Compound | Relative cell-free potency in inhibiting InsRTK [1] [%] | Permeability into cell interiors (rat adipocytes) | also measured
1 | CC(=O)N[C@@H](Cc1c[nH]c2ccccc12)C(=O)NCCS(=O)(=O)O [AC-TRP-TAU, reference compound] |  |  | IC50 [1, 6]: 5 mM
2 | CC(=O)N[C@@H](Cc1c(Sc2ccc([N+](=O)[O-])cc2[N+](=O)[O-])[nH]c2ccccc12)C(=O)NCCS(=O)(=O)O [Acetyl-DNPS-TRP-Taurine] | 80 | poor | inhibition of InsRTK in words ([1]; cell-free experiments): inhibits InSRTK; Permeability into cell interiors (rat adipocytes; listed as acetyl-DNPS-TRP-TAU): low permeability
3 | O=C(O)CC(NC(=O)[C@H](Cc1c(Sc2ccc([N+](=O)[O-])cc2[N+](=O)[O-])[nH]c2ccccc12)NC(=O)OCc1ccccc1)C(=O)O (some centres unmarked) [CBZ-DNPS-TRP-Aspartic Acid] | 5 | good | 
4 | O=C(N[C@@H](Cc1c(Sc2ccc([N+](=O)[O-])cc2[N+](=O)[O-])[nH]c2ccccc12)C(=O)NCS(=O)(=O)O)OCc1ccccc1 [CBZ-DNPS-TRP-aminomethyl-SO3, CBZ-DNPS-TRP-aminomethylsulfonic acid] | 90 | excellent | 
5 | O=C(N[C@@H](Cc1c(Sc2ccc([N+](=O)[O-])cc2[N+](=O)[O-])[nH]c2ccccc12)C(=O)NCCCS(=O)(=O)O)OCc1ccccc1 [CBZ-DNPS-TRP-aminopropyl-SO3, CBZ-DNPS-TRP-aminopropylsulfonic acid] | 70 | excellent | 
6 | O=C(N[C@@H](Cc1c(Sc2ccccc2[N+](=O)[O-])[nH]c2ccccc12)C(=O)NCCS(=O)(=O)O)OCc1ccccc1 [CBZ-NPS-TRP-TAU] | 30 | good | IC50 [1, 6]: 0.55 mM
7 | O=C(NC(Cc1ccccc1)C(=O)ON1C(=O)CCC1=O)OCc1ccccc1 (centres unmarked) [CBZ-Phe-OSU, benzyloxycarbonylphenyl-N-hydroxysuccinimide ester] |  |  | IC50 [2]: 50 µM
8 | O=C(N[C@@H](Cc1c[nH]c2ccccc12)C(=O)NCCS(=O)(=O)O)OCc1ccccc1 [CBZ-TRP-TAU] | 20 | poor | IC50 [1, 6]: 2.7 mM; solubility (solubility): ≤ 1300 mM
9 | O=C(N[C@@H](Cc1c[nH]c2ccccc12)C(=O)NCP(=O)(O)O)OCc1ccccc1 [CBZ-TRP-aminomethyl-PO3] | 5 | poor | 
10 | O=C(N[C@@H](Cc1c[nH]c2ccccc12)C(=O)NCCCS(=O)(=O)O)OCc1ccccc1 [CBZ-TRP-β-TAU] |  |  | IC50 [1, 6]: 3.5 mM
11 | CC(C)CC(NC(=O)OCc1ccccc1)C(=O)NCCS(=O)(=O)O (centres unmarked) [CBZ-leucine-Taurine, reference compound] | 2 | poor | 
12 | CC(C)NCC(O)c1ccc(O)c(O)c1 (centres unmarked) [Isoproterenol, isoproterenol, reference compound] |  |  | activity at 1 µM ([3]; Rattus norvegicus, Adipocyte, read-out: Percent lipolysis): 100%; Amount of glycerol released [3]: 165 nmol/3 × 10^5 cells/3 h
13 | N[C@@H](Cc1c[nH]c2ccccc12)C(=O)O [L-tryptophan, reference compound] |  |  | IC50 [1]: > 30 mM
14 | CC(C)(C)OC(=O)N[C@@H](Cc1c(Sc2ccc([N+](=O)[O-])cc2[N+](=O)[O-])[nH]c2ccccc12)C(=O)NCCS(=O)(=O)O [tBoc-DNPS-TRP-Taurine, tBoc-DNPS-TRP-aminoethylsulfonic acid] | 95 | excellent | 
15 | CC(C)(C)OC(=O)N[C@@H](Cc1c(Sc2ccc([N+](=O)[O-])cc2[N+](=O)[O-])[nH]c2ccccc12)C(=O)NCS(=O)(=O)O [tBoc-DNPS-TRP-aminomethyl-SO3, tBoc-DNPS-TRP-aminomethylsulfonic acid] | 80 | excellent | 
16 | CC(C)(C)OC(=O)N[C@@H](Cc1c(Sc2ccc([N+](=O)[O-])cc2[N+](=O)[O-])[nH]c2ccccc12)C(=O)NCCCS(=O)(=O)O [tBoc-DNPS-TRP-aminopropyl-SO3, tBoc-DNPS-TRP-aminopropylsulfonic acid] | 90 | excellent | 
17 | insulin |  |  | Vinsulin (lipogenesis) [4]: 8000-10,000 cpm per 3×10^5 cells/h; 3H-thymidine incorporation in presence vs absence of insulin [5]: 12-14 fold
